Columns and labels:
hCA I = target: T1, hCA I (Homo sapiens, UniProt P00915); assay: stopped flow CO2 hydrase assay, hCA I; type: biochemical; conditions: recombinant cytosolic isoform; mean from 3 different assays, errors ±5–10%
T1 construct: made in house
Protocol: (§1) The newly synthesized imidazo[2,1-b]thiazole-sulfonyl piperazines (9aa-ee) were screened for their CA inhibition activity against cytosolic (hCA I, hCA II) and the tumor associated (hCA IX, hCAXII) isoforms by a stopped flow CO2 hydrase assay.
(§2) The inhibition assay of selected CA isozymes was performed using SX.18V-R Applied Photophysics (Oxford, UK) stopped flow instrument. 10 mM Hepes (pH 7.4) as a buffer, with Phenol Red (at a concentration of 0.2 mM) as an indicator, 0.1M Na2SO4 or NaClO4 (To maintain the constant ionic strength; these anions are not inhibitory in the used concentration), following the CA-catalyzed CO2 hydration reaction for a period of 5–10 s. […] Stock solutions of inhibitors were prepared at a concentration of 10 mM (in DMSO-water 1:1 v/v) and dilutions up to 0.01 nM done with the assay buffer mentioned above. […] Inhibitor and enzyme solutions were pre-incubated together for 10 min at room temperature prior to assay, in order to allow for the formation of the E-I complex. […] The inhibition constants were obtained by non-linear least square methods using the Cheng-Prusoff equation, as reported earlier, [24, 25] and represent the mean from at least three different determinations. All CA isozymes used here were recombinant proteins obtained as reported earlier by our group.

hCA IX = target: T2, hCA IX (Homo sapiens, UniProt Q16790); assay: stopped flow CO2 hydrase assay, hCA IX; type: biochemical; conditions: recombinant tumor associated isoform; mean from 3 different assays, errors ±5–10%
T2 construct: made in house
Protocol: as §1, §2

hCA XII = target: T3, hCA XII (Homo sapiens, UniProt O43570); assay: stopped flow CO2 hydrase assay, hCA XII; type: biochemical; conditions: recombinant tumor associated isoform; mean from 3 different assays, errors ±5–10%
T3 construct: made in house
Protocol: as §1, §2

hCA II = target: T4, hCA II (Homo sapiens, UniProt P00918); assay: stopped flow CO2 hydrase assay, hCA II; type: biochemical; conditions: recombinant cytosolic isoform; mean from 3 different assays, errors ±5–10%
T4 construct: made in house
Protocol: as §1, §2

T3 sequence (O43570 25-354): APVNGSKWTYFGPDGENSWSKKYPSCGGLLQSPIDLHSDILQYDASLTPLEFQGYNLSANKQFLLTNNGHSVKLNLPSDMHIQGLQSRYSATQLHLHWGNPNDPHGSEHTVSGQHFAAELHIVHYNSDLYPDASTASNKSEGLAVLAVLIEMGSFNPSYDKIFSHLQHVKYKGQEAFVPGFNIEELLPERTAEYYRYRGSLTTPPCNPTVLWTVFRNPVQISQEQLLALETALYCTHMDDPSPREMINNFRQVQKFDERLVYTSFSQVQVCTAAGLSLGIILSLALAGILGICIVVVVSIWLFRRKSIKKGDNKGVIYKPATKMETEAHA
T1 sequence (P00915 whole entry, canonical isoform): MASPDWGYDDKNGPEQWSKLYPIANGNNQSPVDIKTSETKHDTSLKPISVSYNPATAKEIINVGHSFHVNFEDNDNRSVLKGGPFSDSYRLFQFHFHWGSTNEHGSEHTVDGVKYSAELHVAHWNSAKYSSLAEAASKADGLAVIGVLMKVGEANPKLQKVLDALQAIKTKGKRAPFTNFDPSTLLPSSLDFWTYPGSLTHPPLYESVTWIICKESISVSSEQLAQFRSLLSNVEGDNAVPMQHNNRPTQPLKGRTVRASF

Compound | Ki (hCA I) [µM] | Ki (hCA IX) [µM] | Ki (hCA XII) [µM] | Ki (hCA II) [µM] | melting point [°C]
(5-Phenylimidazo[2,1-b]thiazol-2-yl)(4-tosylpiperazin-1-yl)methanone [Compound 9eb] | > 100 | > 100 | > 100 | > 100 | 
(4-((4-Chlorophenyl)sulfonyl)piperazin-1-yl)(5-phenylimidazo[2,1-b]thiazol-2-yl)methanone [Compound 9ec] | > 100 | > 100 | > 100 | > 100 | 
(4-((4-Methoxyphenyl)sulfonyl)piperazin-1-yl)(5-phenylimidazo[2,1-b]thiazol-2-yl)methanone [Compound 9ea] | > 100 | > 100 | > 100 | > 100 | 
(5-(4-Methoxyphenyl)imidazo[2,1-b]thiazol-2-yl)(4-((4-methoxyphenyl)sulfonyl)piperazin-1-yl)methanone [Compound 9aa] | > 100 | > 100 | > 100 | > 100 | 
(5-Phenylimidazo[2,1-b]thiazol-2-yl)(4-(phenylsulfonyl)piperazin-1-yl)methanone [Compound 9ed] | > 100 | > 100 | > 100 | > 100 | 
(4-((4-Methoxyphenyl)sulfonyl)piperazin-1-yl)(5-(p-tolyl)imidazo[2,1-b]thiazol-2-yl)methanone [Compound 9ba] | > 100 | > 100 | > 100 | > 100 | 
(5-(p-Tolyl)imidazo[2,1-b]thiazol-2-yl)(4-tosylpiperazin-1-yl)methanone [Compound 9bb] | > 100 | > 100 | > 100 | 76.4 | 
(5-(4-Chlorophenyl)imidazo[2,1-b]thiazol-2-yl)(4-(phenylsulfonyl)piperazin-1-yl)methanone [Compound 9cd] | > 100 | > 100 | > 100 | 71.2 | 
Cc1ccc(-c2cnc3sc(C(=O)N4CCN(S(=O)(=O)c5ccc(C(C)(C)C)cc5)CC4)cn23)cc1 [Compound 9bd, (4-((4-(Tert-butyl)phenyl)sulfonyl)piperazin-1-yl)(5-(p-tolyl)imidazo[2,1-b]thiazol-2-yl)methanone] |  |  |  |  | 222 to 224
(5-(4-Chlorophenyl)imidazo[2,1-b]thiazol-2-yl)(4-((4-methoxyphenyl)sulfonyl)piperazin-1-yl)methanone [Compound 9ca] | > 100 | > 100 | > 100 | 79.9 | 
(5-(4-Methoxyphenyl)imidazo[2,1-b]thiazol-2-yl)(4-(phenylsulfonyl)piperazin-1-yl)methanone [Compound 9ad] | > 100 | > 100 | > 100 | > 100 | 
(5-(4-Fluorophenyl)imidazo[2,1-b]thiazol-2-yl)(4-(phenylsulfonyl)piperazin-1-yl)methanone [Compound 9dd] | > 100 | > 100 | > 100 | > 100 | 
(5-(4-Fluorophenyl)imidazo[2,1-b]thiazol-2-yl)(4-((4-methoxyphenyl)sulfonyl)piperazin-1-yl)methanone [Compound 9da] | > 100 | > 100 | > 100 | 67.9 | 
(5-(4-Fluorophenyl)imidazo[2,1-b]thiazol-2-yl)(4-tosylpiperazin-1-yl)methanone [Compound 9db] | > 100 | > 100 | > 100 | > 100 | 
(4-((4-Chlorophenyl)sulfonyl)piperazin-1-yl)(5-(4-fluorophenyl)imidazo[2,1-b]thiazol-2-yl)methanone [Compound 9dc] | > 100 | > 100 | > 100 | 98.2 | 
(5-(4-Chlorophenyl)imidazo[2,1-b]thiazol-2-yl)(4-((4-chlorophenyl)sulfonyl)piperazin-1-yl)methanone [Compound 9cc] | > 100 | > 100 | > 100 | 57.8 | 
(4-((4-(Tert-butyl)phenyl)sulfonyl)piperazin-1-yl)(5-(4-chlorophenyl)imidazo[2,1-b]thiazol-2-yl)methanone [Compound 9ce] | > 100 | > 100 | > 100 | 62.1 | 
(5-(4-Chlorophenyl)imidazo[2,1-b]thiazol-2-yl)(4-tosylpiperazin-1-yl)methanone [Compound 9cb] | > 100 | > 100 | > 100 | > 100 | 
(4-((4-(Tert-butyl)phenyl)sulfonyl)piperazin-1-yl)(5-(4-fluorophenyl)imidazo[2,1-b]thiazol-2-yl)methanone [Compound 9de] | > 100 | > 100 | > 100 | > 100 | 

Source: publication PMC7240968, “Synthesis and Biological Evaluation of Imidazo[2,1-b]Thiazole based Sulfonyl Piperazines as Novel Carbonic Anhydrase II Inhibitors” (Metabolites, 2020)
